{"source": "patent US8686224B2", "about": "“Plant defense signal peptides” (priority 2005, dated 2014)", "key": {"[1]": {"test_system": "PDF1.2 and PR-1 gene expression", "assay": "Spraying of four-week-old soil-grown plants, qRT-PCR of PDF1.2 and PR-1", "assay_type": "in vivo, Arabidopsis thaliana", "from_the_text": "[…]1 and […]2 mutants are unable to respond to AtPEP1. To further examine the importance of […]1 and […]2 in AtPep1 signaling, the expression level of WRKY transcription factor genes, WRKY22, WRKY29, WRKY33. WRKY53 and WRKY55, were monitored by qRT-PCR after supplying AtPep1 to wild type Arabidopsis and T-DNA insertional mutants of […]1 and […]2. These WRKY genes were reported to be induced by the fungal PAMP, chitin (Wan et al., Plant Cell 20: 471-481, 2008), and the bacterial PAMPs, […] et al., Cell 125:749-760, 2006). […] In the double mutants, […] […] We also examined the effect of supplying AtPep1 to the double mutants on the expression of the antimicrobial protein genes, defensin (PDF1.2) and pathogenesis related protein (PR-1) […] peptides are known to induced these genes (Huffaker and Ryan, Proc. Natl. Acad. Sci. USA 104: 10732-10736, 2007). Since the expression levels of PDF1.2 and PR-1 gene in Arabidopsis seedlings grown in liquid medium were already high, the method of supplying AtPep1 was changed. Four-week-old Arabidopsis plants grown in soil were sprayed with 1 μM AtPep1 in 0.01% Silwet L-77, and subjected to qRT-PCR analysis after 6 hours."}, "AtPEPR1 [2]": {"target": "T1, AtPEPR1 (Arabidopsis thaliana, UniProt Q9SSL9)", "T1 construct": "Tobacco cells were transformed with a CaMV-35S-AtPEPR1 gene; expressed in transfected cells; host or cells: tobacco suspension-cultured cells (Agrobacterium-mediated, CaMV 35S promoter)", "T1 sequence (Q9SSL9 29-1123)": "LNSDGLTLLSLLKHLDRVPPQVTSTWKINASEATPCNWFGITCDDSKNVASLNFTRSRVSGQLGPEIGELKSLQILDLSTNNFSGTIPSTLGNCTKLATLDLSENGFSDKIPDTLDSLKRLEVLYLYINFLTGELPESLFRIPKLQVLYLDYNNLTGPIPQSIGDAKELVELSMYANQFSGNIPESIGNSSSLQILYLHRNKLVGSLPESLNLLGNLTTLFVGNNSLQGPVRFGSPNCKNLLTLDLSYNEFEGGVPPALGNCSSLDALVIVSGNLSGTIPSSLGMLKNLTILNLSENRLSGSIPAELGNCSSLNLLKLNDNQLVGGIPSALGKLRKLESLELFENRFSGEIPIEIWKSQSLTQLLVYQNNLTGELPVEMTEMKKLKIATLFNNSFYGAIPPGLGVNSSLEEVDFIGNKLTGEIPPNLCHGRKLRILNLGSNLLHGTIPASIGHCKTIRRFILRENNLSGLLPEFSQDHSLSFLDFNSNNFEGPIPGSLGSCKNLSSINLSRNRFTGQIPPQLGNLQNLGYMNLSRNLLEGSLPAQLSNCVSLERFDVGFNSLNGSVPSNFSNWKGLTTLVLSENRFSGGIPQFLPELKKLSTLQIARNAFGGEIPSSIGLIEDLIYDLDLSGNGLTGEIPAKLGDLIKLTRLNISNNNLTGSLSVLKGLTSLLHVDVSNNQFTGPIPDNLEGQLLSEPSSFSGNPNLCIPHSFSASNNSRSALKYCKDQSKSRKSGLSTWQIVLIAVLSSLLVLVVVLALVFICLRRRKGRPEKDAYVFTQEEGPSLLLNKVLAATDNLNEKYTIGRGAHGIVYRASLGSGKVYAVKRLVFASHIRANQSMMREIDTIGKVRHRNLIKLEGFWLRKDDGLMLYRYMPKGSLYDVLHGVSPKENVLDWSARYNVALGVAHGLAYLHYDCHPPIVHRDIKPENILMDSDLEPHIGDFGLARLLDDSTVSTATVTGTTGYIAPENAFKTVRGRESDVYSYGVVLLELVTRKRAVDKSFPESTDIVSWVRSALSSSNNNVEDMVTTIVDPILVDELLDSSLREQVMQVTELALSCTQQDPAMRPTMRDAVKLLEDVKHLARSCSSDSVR", "assay": "Medium alkalinization of transgenic tobacco cells expressing AtPEPR1", "assay_type": "cell-based", "from_the_text": "Tobacco cells were transformed with a CaMV-35S-AtPEPR1 gene to determine whether the foreign receptor protein was targeted to the cell surface, where, in response to AtPep1, it would activate intracellular signaling to effect the alkalinization of the medium of the transgenic tobacco cells. Expression of the AtPEPR1 gene was confirmed by RT-PCR analysis of RNA from three independently transformed tobacco cell lines. […] AtPep2-7 was also supplied to the transgenic tobacco cells expressing AtPEPR1.\nTo clarify whether AtPEPR2 binds to AtPep1, the AtPEPR2 coding region was fused to the CaMV 35S promoter and introduced into tobacco suspension-cultured cells by Agrobacterium. Tobacco cells expressing AtPEPR1 and GUS genes were also created as positive and negative controls, respectively. […] These transgenic lines were analyzed for alkalinizing activity as previously described (Pearce et al., Proc. Natl. Acad. Sci. USA 98, 12843-12847, 2001).\nThe response to all AtPep peptides in transgenic tobacco cells expressing either AtPEPR1 or AtPEPR2 was analyzed by the medium alkalinization assay."}, "AtPEPR1 [3]": {"target": "T1, AtPEPR1", "assay": "Photoaffinity labeling of transgenic tobacco cells expressing AtPEPR1", "assay_type": "binding", "conditions": "50 nM unlabeled competitor, 0.25 nM label", "protocol": "For final confirmation, a photoaffinity-labeling experiment was performed using the transgenic tobacco cells. The transgenic cells were incubated with 0.25 nM ^125I1-azido-Cys-AtPep1 (Yamaguchi et al., Proc. Natl. Acad. Sci. USA 103: 10104-10109, 2006) and irradiated with UV-B to cross-link the AtPep1-binding proteins. After separation of extracted proteins by SDS-PAGE, the labeled proteins were detected on X-ray film. […] Since no specific labeling was detected in wild type tobacco and GUS expressing cells, the proteins labeled specifically by ^125I1-azido-Cys-AtPep1 in AtPEPR1 and AtPEPR2 expressing cells were products from the AtPEPR1 and AtPEPR2 genes."}, "[4]": {"conditions": "sprayed 1 μM in 0.01% Silwet L-77, 6 hours, wild type"}, "[5]": {"conditions": "AtPEPR1 expressing tobacco cells"}}, "note": "“Also recorded” adds a separate entry of the source.", "data": [{"substance": "H-ATKVKAKQRGKEKVSSGRPGQHN-OH [AtPep1]", "values": [{"measurement": "induction of PDF1.2", "setting": "[1]; [4]", "value": 30, "unit": "fold"}, {"measurement": "induction of PR-1", "setting": "[1]; [4]", "value": 60, "unit": "fold"}, {"measurement": "induction of PDF1.2 and PR-1 in the double mutants", "setting": "[1]; sprayed 1 μM, 6 hours", "value": "not induced"}, {"measurement": "EC50", "setting": "AtPEPR1 [2]", "value": "~0.25", "unit": "nM"}, {"measurement": "alkalinization of the medium", "setting": "AtPEPR1 [2]; [5]", "value": "strong, reproducible alkalinization; also recorded: caused alkalinization of the media"}, {"measurement": "maximal change", "setting": "AtPEPR1 [2]; [5]", "value": 1.2, "unit": "pH units"}, {"measurement": "labeling of the 170 kDa protein by 125I1-azido-Cys-AtPep1 with competitor", "setting": "AtPEPR1 [3]", "value": "not in the cells incubated with 50 nM unlabeled AtPep1"}]}]}
